{"source": "patent US20240148757A1", "about": "“USE OF DIHYDROOROTATE DEHYDROGENASE (DHODH) INHIBITORS TO TARGET FERROPTOSIS IN CANCER THERAPY” (BOARD OF REGENTS, THE UNIVERSITY OF TEXAS SYSTEM, priority 2021, published 2024)", "key": {"GPX4-knockdown tumors": {"tested_on": "GPX4-knockdown tumors", "test": "GPX4-knockdown HT-1080 xenograft model", "format": "in vivo, athymic nude mice", "conditions": "liproxstatin-1 10 mg/kg intraperitoneally daily", "procedure": "Fresh tumor tissues were fixed in 10% neutral buffered formalin overnight, washed once with PBS, and stored in 70% ethanol at 4° C. The tissues were dehydrated and embedded in paraffin by the Research Histology Core Laboratory (MD Anderson Cancer Center) according to standard protocols. Embedded tissues were sectioned at a thickness of 5 μm for H&E or immunohistochemistry (IHC) analysis. IHC analysis was performed as previously described (Gan, B., et al., Cancer Cell 18, 472-484 (2010); Gan, B., et al., J Cell Biol 175, 121-133 (2006)). Briefly, the primary antibodies, including ki-67 (1:500, 9027s, Cell Signaling Technology), cleaved-caspase 3 (1:500, 9661s, Cell Signaling Technology), or 4-HNE (1:400, ab46545, Abcam) were incubated overnight at 4° C. Staining was performed using the Vectastain elite ABC kit and DAB peroxidase substrate kit (Vector laboratories). Images were randomly taken from the […] (five images per tumor) at ×200 magnification using an Olympus BX43 microscope. All the xenograft experiments were performed in accordance with a protocol approved by the Institutional Animal Care and Use Committee and Institutional Review Board at The University of Texas MD Anderson Cancer Center. The study is compliant with all relevant ethical regulations regarding animal research. Female 4- to 6-week-old athymic nude mice (Foxn1^nu/Foxn1^nu) were purchased from the Experimental Radiation Oncology Breeding Core Facility at MD Anderson Cancer Center and housed in the Animal Care Facility at the Department of Veterinary Medicine and Surgery at MD Anderson. Cancer cell lines were suspended and counted in cold phosphate-buffered saline (PBS), and 5×10^6 HT-1080 or 1×10^7 NCI-H226 cells were injected into mice subcutaneously. When the tumor reached 50-100 mm^3, the mice were assigned randomly into different treatment groups. Brequinar or sulfasalazine was dissolved in dimethyl sulfoxide (DMSO) and diluted in PBS. Brequinar was intraperitoneally injected into mice at a dose of 30 mg/kg every three days. Sulfasalazine was intraperitoneally injected daily at a dose of 100 mg/kg. Liproxstatin-1 diluted in PBS was intraperitoneally injected daily at a dose of 10 mg/kg. The daily injection of brequinar, sulfasalazine, or liproxstatin-1 was continued until the endpoint as indicated in the corresponding figures. The tumor volume was measured every 3 days until the endpoint and calculated according to the equation volume=length×width^2×½."}, "DHODH KO HT-1080 cells": {"tested_on": "DHODH KO HT-1080 cells", "test": "Mitochondrial lipid peroxidation (mito-BODIPY) in DHODH KO HT-1080 cells", "format": "cell-based, human", "conditions": "pretreatment 10 μM, 24 hours"}, "GPX4^high HT-1080 cells": {"tested_on": "GPX4^high HT-1080 cells", "test": "Cell viability / cell death (ferroptosis) in HT-1080 cells", "format": "cell-based, human", "conditions": "24 hours", "method_in_brief": "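HT-1080 cells were exposed to GPX4 or DHODH inhibitors for 4 h, and viability was then read by CCK-8 absorbance at 450 nm after 1 h at 37 °C. Separately, cell death was scored as the propidium iodide-positive fraction (5 μg/ml) by flow cytometry, ≥10,000 cells per well.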"}, "HT-1080 cells": {"tested_on": "HT-1080 cells", "test": "Metabolic tracer analysis of pyrimidine synthesis (amide-15N-glutamine)", "format": "cell-based, human", "conditions": "Lip-1 10 μM", "procedure": "Metabolomic analysis was performed as previously described (Liu, X., et al., Nat Cell Biol 22, 476-486 (2020)). Cells were seeded on 35 mm culture plates at a density sufficient to ensure approximately 70-80% confluence at the time of extraction. For metabolic tracer analysis of pyrimidine synthesis, HT-1080 cells were treated with RSL3 and/or Lip-1 for 2 hours and then were shifted to drug-free media containing amide-^15N-glutamine (this time point is defined as 0 hour). Metabolites were extracted at the indicated time points for subsequent analyses. Metabolites were extracted by rapidly aspirating the culture medium and then adding 0.6 mL of an 80% methanol: 20% water mixture at dry ice temperature. The plates were incubated on dry ice for 15 minutes before the cell material was scraped into eppendorf tubes pre-chilled on ice. The cell debris was pelleted by centrifugation at 13,000 RCF for 5 minutes at 4° C. and the supernatant was transferred to a fresh tube and stored on dry ice until analysis. […]\nThe complete platform consists of an Accela 1250 HPLC system, Accela Open Autosampler, MayLab Mistraswitch column oven and Exactive orbitrap mass spectrometer, controlled by the Xcalibur 3.0.63 software package. […] The data were analyzed using the MAVEN software suite57 with signal intensity determined as the Peak Area (Top). […]"}}}
{"compound": "Clc1cccc(CN=C2Nc3ccccc3NC23CCNCC3)c1", "note": "[liproxstatin-1]", "values": [{"measurement": "restoration of tumor growth under brequinar treatment", "setting": "GPX4-knockdown tumors", "value": "largely restored the growth"}, {"measurement": "suppression of GPX4 inhibitor-induced mitochondrial lipid peroxidation", "setting": "DHODH KO HT-1080 cells", "value": "could be suppressed"}, {"measurement": "rescue of DHODH inhibition-induced cell death", "setting": "GPX4^high HT-1080 cells; BQR, pretreatment Lip-1 or ZVF 10 μM", "value": "the opposite was observed"}, {"measurement": "protection against GPX4 inhibition (RSL3 or ML162)-induced ferroptosis", "setting": "GPX4^high HT-1080 cells; DHODH WT, pretreatment 10 μM", "value": "rescued"}, {"measurement": "rescue of RSL3-induced increase of 15N-UMP levels", "setting": "HT-1080 cells", "value": "completely rescued"}]}
